Measurements as given in US5849771A, “Phosphorylated nitrone derivatives, method for preparing same, and compositions containing said derivatives” (Centre National de la Recherche Scientifique (C.N.R.S.), priority 1995, dated 1998).
Where two headings read alike, the source gives them in different places.

Assays:
[1] = Kinetics of decomposition (EPR) of superoxide trapping adducts (nitrone-OOH) in phosphate buffer medium; details: for Half-life time: decay of nitrone-OOH adduct, 0.1M phosphate buffer pH=5.8; for order of kinetics of disappearance of the adducts: phosphate buffer pH=5.8; for adduct degradation, times less quickly than the POBN--OOH adducts: phosphate buffer, relative to POBN--OOH
Description: The adducts from trapping with the superoxide radical were produced using the riboflavin-DTPA (diethylenetriaminepentaacetic acid) system.
This system contains 1M of DTPA, […] of riboflavin and 0.1M of nitrone in a 0.1M phosphate buffer at pH=5.8.
This mixture is transferred into the cell of a Varian E-9 spectrometer. The cell is then irradiated to generate the superoxide radical in situ. At the end of irradiation the decrease in the adducts (nitrone-OOH) is studied using EPR analysis.

[2] = EPR spin trapping of HO^. radicals (Fenton's method); details: phosphate buffer pH=7
Description: In this experiment the HO^. radicals were produced by Fenton's method in a 1.1M phosphate buffer at pH=7 in the presence of the […] system. This classical reaction for producing HO^. radicals can be expressed more simply as follows:
H2 O2 +Fe(II)→HO^. +HO-+Fe(III).
The EPR spectrum of the adduct from trapping is recorded approximately 40 s after addition of the ferrous sulphate.
(§1) The stability of these adducts makes it possible to measure the respective coupling constants of the unpaired electron with the nuclei of nitrogen (AN), of hydrogen β to the nitrogen atom (AH) and of phosphorus (AP). These values have been shown together in Table 3 which follows: […]

[3] = EPR spin trapping of O2^.-/HOO^. radicals (hypoxanthine/xanthine oxidase system); details: for EPR detection of trapping adduct: HOO^. radicals, hypoxanthine/xanthine oxidase, 0.1M phosphate buffer
Description: For the production of the HOO^. radicals the hypoxanthine/xanthine oxidase system is employed in a 0.1M phosphate buffer maintained at ambient temperature. The oxygen resulting in the formation of the HOO^. radicals is that initially dissolved in the 0.1M phosphate buffer.
The hypoxanthine/xanthine oxidase system contains 0.1M of a phosphate buffer, […] of hypoxanthine, 1 mM of diethylenetriaminepentaacetic acid (DTPA), 0.4 units cm^-3 of xanthine oxidase (marketed by the company Boehringer Mannheim Biochemica Co.), and 0.1M of the nitrone being tested. The EPR spectra of the adducts from trapping are recorded approximately 40 s after the addition of xanthine oxidase.
as §1

[4] = for adduct degradation, times more slowly than the POBN--OOH and PBN--OOH adducts: organic medium (DMF, pyridine), relative to POBN--OOH and PBN--OOH
Description: The adducts from trapping with the superoxide radical were produced using the lumiflavin-DTPA system in pyridine, or dimethylformamide. This contains […] of DTPA, […] of lumiflavin and 0.1M of nitrone in pyridine or dimethylformamide.
The operating procedure followed for the study of the decrease of the adduct from trapping is the same as above.

[5] = physchem; details: for lipophilic/hydrophilic character: from partition coefficients, n-octanol/phosphate buffer; for logD at 1 h: n-octanol/10 mm phosphate buffer, pH 7.4
Description: Biol. Med. 14 (1993) 127. The partition coefficients are defined simply as the ratio of the nitrone concentration in the lipophilic phase (n-octanol) to the nitrone concentration in the aqueous phase.
Identical volumes (2 cm^3) of the octanolic nitrone solution prepared above and of a 10 mM phosphate buffer of pH=7.4 are agitated vigorously at 37° C. for 1 hour and the two phases are then separated by centrifuging (1000 g for 20 s) . The respective nitrone concentrations in each phase are then measured.

[6] = cerebral ischaemia-reperfusion or cerebral aging; cited from earlier work

SMILES | Half-life time [1] [min] | order of kinetics of disappearance of the adducts [1] | adduct degradation, times less quickly than the POBN--OOH adducts [1] | EPR detection of trapping adduct [2] | EPR detection of trapping adduct [3] | Half-life time ([4]; DMF) [min] | k ([4]; DMF) | adduct degradation, times more slowly than the POBN--OOH and PBN--OOH adducts [4] | Half-life time ([4]; pyridine) [min] | k ([4]; pyridine) | lipophilic/hydrophilic character [5] | logD at 1 h [5] | reversal of the harmful effects of oxygen-containing free radicals [6] | detection of the radical O2^.- ([3]; EPR spin trapping)
CCOP(=O)(OCC)C(C)(C)[N+]([O-])=Cc1ccccc1 [Example 1, Diethyl 1-(N-benzylidene-N-oxy)amino-1-methylethyl-phosphonate] | 5.12 | first order | approximately 20 times | formation of the adducts | formation of the adducts |  |  |  |  |  |  |  |  | 
CCOP(=O)(OCC)C(C)(C)[N+]([O-])=Cc1cc[n+]([O-])cc1 [Example 2, Diethyl 1-[N-oxy-N-[4-(N'-oxypyridyl)formylene]amino]-1-methylethylphosphonate] | 7.08 | first order | approximately 20 times |  |  | 16.2 | 0.714 ± 0.007 10^3 s^-1 | approximately three | 21.05 | 0.549 ± 0.003 10^3 s^-1 | lipophilic | 2.29 |  | 
CCOP(=O)(OCC)C(C)(C)[N+]([O-])=Cc1ccc(Cl)cc1 [Example 4, Diethyl 1-[[N-(4-chlorophenyl)formylene]-N-oxyamino]-1-methylethylphosphonate] |  |  |  |  |  | 15.2 |  | approximately three | 20.17 | 0.573 ± 0.001 10^3 s^-1 | hydrophilic | -0.745 |  | 
CC(C)(C)[N+]([O-])=Cc1ccccc1 [PBN, α-phenyl-tert-butylnitrone, reference compound] |  |  |  | No signal could be detected | No signal could be detected | 4.18 |  |  | 4.42 |  |  |  | particularly effective | cannot be carried out
CC(C)(C)[N+]([O-])=Cc1cc[n+]([O-])cc1 [POBN, α-(1-oxydopyridin-1-ium-4-yl)-N-tert-butylnitrone, reference compound] | 0.317 | first order |  |  |  | 5.05 |  |  | 5.23 |  |  |  |  | 
